# Read-outs that look alike come from different tables or passages of the source.
# Legend:
# Assay type in all cases: biochemical
# [1] = target: T1, HCPTP-A (Homo sapiens, UniProt P24666); test: pNPP phosphatase inhibition assay, HCPTP-A
# T1 sequence (P24666 1-158): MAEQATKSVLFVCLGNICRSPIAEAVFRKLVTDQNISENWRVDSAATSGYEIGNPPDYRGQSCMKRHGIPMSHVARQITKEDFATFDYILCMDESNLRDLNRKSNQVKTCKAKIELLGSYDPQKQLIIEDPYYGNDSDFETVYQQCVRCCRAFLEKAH
# [2] = target: T2, HCPTP-B (Homo sapiens, UniProt P24666); test: pNPP phosphatase inhibition assay, HCPTP-B; settings: for inhibition at 100 µM: pH 5, read-out: inhibition of HCPTP-B activity
# T2 sequence (P24666 1-158 isoform P24666-2): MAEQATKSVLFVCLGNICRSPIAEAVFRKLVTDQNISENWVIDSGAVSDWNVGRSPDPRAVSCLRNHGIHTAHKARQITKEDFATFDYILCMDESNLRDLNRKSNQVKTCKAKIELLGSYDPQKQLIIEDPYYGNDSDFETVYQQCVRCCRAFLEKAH
# [3] = target: T3, HCPTP (Homo sapiens, UniProt P24666); test: single concentration screen repeated with 0.01% Triton X-100; settings: 0.01% Triton X-100 and reducing agents
# T3 sequence (P24666 1-158): T1 sequence (P24666 1-158)
# [4] = target: T4, HCPTP (Homo sapiens, UniProt P24666); test: pNPP single concentration screen, isoform not specified; settings: pH 5, read-out: elevation of the activity of HCPTP
# T4 sequence (P24666 2-158): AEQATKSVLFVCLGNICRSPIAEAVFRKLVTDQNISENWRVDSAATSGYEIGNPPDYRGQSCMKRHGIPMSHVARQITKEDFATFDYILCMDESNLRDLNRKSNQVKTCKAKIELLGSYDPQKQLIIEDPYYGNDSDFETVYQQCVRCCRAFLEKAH
# [5] = pH 7, read-out: reduction of the activity of HCPTP-A, 100 μM compound, pH 7
# [6] = pH 5, read-out: inhibition of HCPTP-A activity, 100 μM compound, pH 5
# [7] = IC50 HCPTP-A pH 5, pH 5 (Table II)
# [8] = IC50 HCPTP-A, pH 5 (Table I), pNPP substrate, 25 °C
# [9] = pH 5, read-out: inhibition of HCPTP-A activity
# [10] = pH 7, read-out: reduction of the activity of HCPTP-A
# [11] = IC50 HCPTP-B, pH 5 (Table I), pNPP substrate, 25 °C
# [12] = IC50 HCPTP-A pH 5 (dash class), pH 5 (Table II), dash entries
# [13] = read-out: IC50 HCPTP-A pH 7, pH 7 (Table II)
smiles,measurement,setting,value
N=C(N)NC(=N)Nc1ccc(S(=O)(=O)O)cc1 [Compound 17580],inhibition at 100 µM,[1]; [5],≥ 10%
C[C@]12CC[C@@H]3c4ccc(OP(=O)(O)O)cc4CC[C@H]3[C@@H]1CCC2=O [Compound 18320],inhibition at 100 µM,[1]; [5],≥ 10%
N=C(Cc1ccccc1)NCC(=O)O [Compound 27895],inhibition at 100 µM,[1]; [6],≥ 10%
same,inhibition at 100 µM,[1]; [5],≥ 10%
same,inhibition at 100 µM,[2],≥ 10%
Cc1ncc(OP(=O)(O)O)c(C)c1O [Compound 29870],inhibition at 100 µM,[1]; [6],≥ 10%
same,inhibition at 100 µM,[2],≥ 10%
NC(Cc1ccccc1)P(=O)(O)O (stereo not shown) [Compound 30080],IC50,[1]; [7],223 µM
same,IC50,"[1]; IC50 HCPTP-A pH 7 (dash class), pH 7 (Table II), dash entries",> 100 µM
same,IC50,[1]; [8],223 µM
same,inhibition at 100 µM,[1]; [9],≥ 10%
same,inhibition at 100 µM,[1]; [10],≥ 10%
same,IC50,[2]; [11],139 µM
same,inhibition at 100 µM,[2],≥ 10%
CCc1ccc(CCC(=O)O)nc1 [Compound 35989],reduction of the activity of HCPTP-A,"[1]; 100 μM compound, pH 7",at least 10%
Cn1c(=O)c2[nH]c(CCC(=O)O)nc2n(C)c1=O [Compound 36534],inhibition at 100 µM,[1]; [5],≥ 10%
O=S(=O)(O)c1ccc2c(/N=N/c3c(O)ccc4ccccc34)cccc2c1 [Compound 45576],IC50,[1]; [7],5.5 µM
same,IC50,[1]; [8],5.5 µM
same,inhibition at 100 µM,[1]; [6],≥ 10%
same,IC50,[2]; [11],3.9 µM
same,inhibition at 100 µM,[2],≥ 10%
same,level of inhibition in the presence of detergent,[3],maintained an approximately constant level of inhibition
NC(Cc1c[nH]c2ccc([N+](=O)[O-])cc12)C(=O)O (stereo not shown) [Compound 58612],inhibition at 100 µM,[1]; [5],≥ 10%
NC(Cc1c[nH]c2cc([N+](=O)[O-])ccc12)C(=O)O (stereo not shown) [Compound 65763],IC50,[1]; [12],> 100 µM
same,IC50,[1]; [13],51 µM
same,activation at 100 µM,[4],≥ 10%
O=C(O)/C(Cc1ccnc2ccccc12)=N/O [Compound 85359],IC50,[1]; [12],> 100 µM
same,inhibition at 100 µM,[1]; [6],≥ 10%
same,IC50,[1]; [13],72 µM
same,inhibition at 100 µM,[2],≥ 10%
CC12CC(=O)C3C(CCC4=CC(=O)CCC43C)C1CC=C2CC(=O)O (stereo not shown) [Compound 86008],inhibition at 100 µM,[1]; [5],≥ 10%
CC1OC(OC2C(O)C(O)C(O)C(O)C2O)C(N)CC1NC(=N)C(=O)O (stereo not shown) [Compound 100858],inhibition at 100 µM,[1]; [5],≥ 10%
CC(=O)Nc1ccc(-c2ccc3[nH]c(=O)cc(C)c3c2)cc1 [Compound 109816],inhibition at 100 µM,[1]; [5],≥ 10%
same,activation at 100 µM,[4],≥ 10%
C[C@]12CC[C@@H]3c4ccc(O)cc4CC[C@H]3[C@@H]1C/C(=N\O)[C@@H]2O [Compound 112737],inhibition at 100 µM,[1]; [5],≥ 10%
CC12CCC(=O)C=C1CCC1C2CCC2(C)C(C(=O)Cn3cnc4c(=S)nc[nH]c43)CCC12 (stereo not shown) [Compound 114792],inhibition at 100 µM,[1]; [6],≥ 10%
same,inhibition at 100 µM,[2],≥ 10%
Nc1nc(N)c(N=Nc2ccc([As](=O)(O)O)c(O)c2)c(N)n1 [Compound 117281],inhibition at 100 µM,[1]; [10],≥ 10%
O=C1C2=C(CC=CC2)C(=O)c2c(Nc3ccc(S(=O)(=O)O)cc3)ccc(Nc3ccccc3)c21 [Compound 128437],IC50,[1]; [7],5.5 µM
same,IC50,[1]; [8],5.5 µM
same,inhibition at 100 µM,[1]; [6],≥ 10%
same,IC50,[1]; [13],3.6 µM
same,IC50,[2]; [11],4.5 µM
same,inhibition at 100 µM,[2],≥ 10%
same,level of inhibition in the presence of detergent,[3],maintained an approximately constant level of inhibition
CC[C@H]1CN2CCc3cc(OC)c(OC)cc3C2C[C@@H]1C[C@@H]1NCCc2c1[nH]c1ccc(O)cc21 (stereo partly shown) [Compound 131547],inhibition at 100 µM,[1]; [10],≥ 10%
NC(c1ccccc1)P(=O)(O)O (stereo not shown) [Compound 133811],inhibition at 100 µM,[1]; [6],≥ 10%
same,inhibition at 100 µM,[2],≥ 10%
Nc1cncc(Nc2ccc(S(N)(=O)=O)cc2)n1 [Compound 135784],inhibition at 100 µM,[1]; [5],≥ 10%
O=C(O)CC1NCc2cc3ccccc3nc21 (stereo not shown) [Compound 141566],IC50,[1]; [12],> 100 µM
same,IC50,"[1]; IC50 HCPTP-A pH 7, pH 7 (Table II)",4.8 µM
same,inhibition at 100 µM,[1]; [6],≥ 10%
same,inhibition at 100 µM,[2],≥ 10%
Oc1cc(O)c2c(c1)OC(c1ccc(O)c(O)c1)C(O)C2c1c(O)cc(O)c2c1OC(c1ccc(O)c(O)c1)C(O)C2 (stereo not shown) [Compound 143099],activation at 100 µM,[4],≥ 10%
CC1CN(CC(N)C(=O)O)C(=O)NC1=O (stereo not shown) [Compound 151831],inhibition at 100 µM,[1]; [5],≥ 10%
NC(Cc1cc(Br)c(O)c(Br)c1)C(=O)O (stereo not shown) [Compound 210786],IC50,[1]; [12],> 100 µM
same,IC50,[1]; [13],4.6 µM
same,activation at 100 µM,[4],≥ 10%
O=C(O)C1CSC2(CCN(c3ccccc3)CC2)N1 (stereo not shown) [Compound 319095],IC50,[1]; [12],> 100 µM
same,IC50,[1]; [13],4 µM
same,level of inhibition in the presence of detergent,[3],maintained an approximately constant level of inhibition
NC1CCCCC1P(=O)(O)O (stereo not shown) [Compound 320308],inhibition at 100 µM,[1]; [9],≥ 10%
same,inhibition at 100 µM,[2],≥ 10%
C[S+](=N)([O-])CCP(=O)(O)O (stereo not shown) [Compound 359098],inhibition at 100 µM,[1]; [10],≥ 10%
Nc1nc(-c2ccc3ccccc3c2)cc(-c2cc(-c3ccc4ccccc4c3)nc(N)n2)n1 [Compound 371878],inhibition at 100 µM,[1]; [5],≥ 10%
NC(Cc1ccc2oc3cc(=O)c4ccccc4c-3nc2c1)C(=O)O (stereo not shown) [Compound 643735],inhibition at 100 µM,[1]; [6],≥ 10%
same,inhibition at 100 µM,[2],≥ 10%
NC(c1c[nH]c2ccccc12)P(=O)(O)O (stereo not shown) [Compound 669581],inhibition at 100 µM,[1]; [5],≥ 10%
"[O]=[V]([OH])([OH])[OH] [orthovanadate, reference compound]",IC50,"[1]; read-out: IC50 HCPTP-A, general phosphatase inhibitor, pH not stated",11 µM
same,IC50,"[2]; read-out: IC50 HCPTP-B, general phosphatase inhibitor, pH not stated",61 µM
